# Measurements taken from US9133200B2, “Imidazo[1,2-b]pyridazine and imidazo[4,5-b]pyridine derivatives as JAK inhibitors” (Almirall, S.A., priority 2010, dated 2015).
# pIC50: −log10 of the molar value.
# What was measured:
# Type in all cases: biochemical
# human JAK3 (aa 795-1124) = biological target: T1, human JAK3 (aa 795-1124) (Homo sapiens, UniProt P52333); experiment: In vitro JAK kinase assay (TR-FRET), JAK3; conditions: catalytic domain GST-fusion; ATP 0.6 μM; poly (GT)-Biotin 140 nM; 30 minutes at room temperature
# T1 construct: JAK3 (aa 795-1124); GST (N); purchased Carna Biosciences; host or cells: baculovirus expression system
# T1 sequence (P52333 795-1124): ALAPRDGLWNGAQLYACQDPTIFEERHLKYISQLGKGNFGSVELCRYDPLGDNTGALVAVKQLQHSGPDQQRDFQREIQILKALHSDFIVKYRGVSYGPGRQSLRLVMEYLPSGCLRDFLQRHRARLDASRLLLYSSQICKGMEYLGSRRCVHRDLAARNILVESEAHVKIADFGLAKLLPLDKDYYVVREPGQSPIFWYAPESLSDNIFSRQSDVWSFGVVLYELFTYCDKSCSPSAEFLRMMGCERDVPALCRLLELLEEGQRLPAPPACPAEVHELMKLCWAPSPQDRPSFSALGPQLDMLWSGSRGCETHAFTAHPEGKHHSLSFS
# Experimental: (§1) Compounds were screened for their ability to inhibit JAK1, JAK2 and JAK3 using the assays as indicated below.
# (§2) The catalytic domains of human JAK1 (aa 850-1154), JAK2 (aa 826-1132), JAK3 (aa 795-1124) and Tyk2 (aa 871-1187) were expressed as N-terminal GST-fusion proteins using a baculovirus expression system and were purchased from Carna Biosciences. The enzymatic activity was assayed using as substrate a biotinylated peptide, poly (GT)-Biotin (CisBio). The peptide concentration in the reactions was 60 nM for JAK1, […], 140 nM for JAK3 and 50 nM for Tyk2. The degree of phosphorylation was detected by TR-FRET (time-resolved fluorescence energy transfer).
# (§3) IC50s of compounds were measured for each kinase in a reaction mixture containing the enzyme, ATP and the peptide in 8 mM MOPS (pH 7.0), 10 mM MgCl2, 0.05% […], 0.45 mg/ml BSA. The ATP concentration in the reactions was 3 μM for JAK1, 0.2 μM for JAK2, 0.6 μM for JAK3 and 1.8 μM for Tyk2. The enzymatic reactions took place for 30 minutes at room temperature. Then, the reactions were stopped with 20 μL of quench detection buffer (50 mM HEPES, 0.5 M KF, EDTA 0.25 M, 0.1% (w/v) BSA, pH 7.5) containing 0.115 μg/mL of anti-phosphoTyr (PT66)-Cryptate (CisBio) and a variable concentration of SA-XL665 (CisBio) to keep the SA-B ratio constant. Incubate for 3 h and read on Victor 2V spectrofluorometer (PerkinElmer) set to read fluorescence resonance energy transfer.
# human JAK1 (aa 850-1154) = biological target: T2, human JAK1 (aa 850-1154) (Homo sapiens, UniProt P23458); experiment: In vitro JAK kinase assay (TR-FRET), JAK1; conditions: catalytic domain GST-fusion; ATP 3 μM; poly (GT)-Biotin 60 nM; 30 minutes at room temperature
# T2 construct: human JAK1 (aa 850-1154); GST (N); purchased Carna Biosciences; host or cells: baculovirus expression system
# T2 sequence (P23458 850-1154): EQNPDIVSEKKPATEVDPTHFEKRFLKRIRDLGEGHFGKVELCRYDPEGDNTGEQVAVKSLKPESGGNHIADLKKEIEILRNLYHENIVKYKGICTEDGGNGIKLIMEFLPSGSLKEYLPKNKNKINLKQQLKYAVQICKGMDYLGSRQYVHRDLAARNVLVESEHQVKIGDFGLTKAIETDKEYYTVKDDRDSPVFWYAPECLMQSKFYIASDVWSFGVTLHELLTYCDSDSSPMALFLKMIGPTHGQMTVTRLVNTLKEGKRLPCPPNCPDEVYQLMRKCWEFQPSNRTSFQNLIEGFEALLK
# Experimental: as §1, §2, §3
# human JAK2 (aa 826-1132) = biological target: T3, human JAK2 (aa 826-1132) (Homo sapiens, UniProt O60674); experiment: In vitro JAK kinase assay (TR-FRET), JAK2; conditions: catalytic domain GST-fusion; ATP 0.2 μM; poly (GT)-Biotin; 30 minutes at room temperature
# T3 construct: JAK2 (aa 826-1132); GST (N); purchased Carna Biosciences; host or cells: baculovirus expression system
# T3 sequence (O60674 826-1132): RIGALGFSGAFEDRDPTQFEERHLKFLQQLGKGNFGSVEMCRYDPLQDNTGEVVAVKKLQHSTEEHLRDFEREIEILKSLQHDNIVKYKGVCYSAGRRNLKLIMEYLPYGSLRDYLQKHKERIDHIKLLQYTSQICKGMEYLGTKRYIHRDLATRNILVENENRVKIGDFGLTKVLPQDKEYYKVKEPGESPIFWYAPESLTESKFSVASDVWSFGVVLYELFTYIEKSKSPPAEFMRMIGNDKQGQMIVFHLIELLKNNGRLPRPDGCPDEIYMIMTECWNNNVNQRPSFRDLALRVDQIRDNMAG
# Experimental: as §1, §2, §3
SMILES,pIC50 (human JAK3 (aa 795-1124)),pIC50 (human JAK1 (aa 850-1154)),pIC50 (human JAK2 (aa 826-1132))
"N#CCC(=O)N1CCC[C@@H](Nc2ccc3ncc(-c4ccc[nH]c4=O)n3n2)C1 [Example 1, 3-Oxo-3-((3R)-3-{[3-(2-oxo-1,2-dihydropyridin-3-yl)imidazo[1,2-b]pyridazin-6-yl]amino}piperidin-1-yl)propanenitrile]",> 7.00,> 7.00,> 7.00
"C[C@H](Nc1ccc2ncc(-c3ccc[nH]c3=O)n2n1)c1ncc(F)cn1 [Example 5, 3-(6-{[(1S)-1-(5-Fluoropyrimidin-2-yl)ethyl]amino}imidazo[1,2-b]pyridazin-3-yl)pyridin-2(1H)-one]",> 7.00,> 7.00,> 7.00
"C[C@H](Nc1ccc2ncc(-c3ccn[nH]c3=O)n2n1)c1ccccc1 [Example 6, 4-(6-{[(1S)-1-Phenylethyl]amino}imidazo[1,2-b]pyridazin-3-yl)pyridazin-3(2H)-one]",> 7.00,6.00 to 7.00,> 7.00

# Second part, the compound after the results:
pIC50 (human JAK3 (aa 795-1124)),pIC50 (human JAK1 (aa 850-1154)),pIC50 (human JAK2 (aa 826-1132)),SMILES
> 7.00,6.00 to 7.00,> 7.00,"C[C@@H](Nc1ccc2ncc(-c3ccc[nH]c3=O)n2n1)c1ccc(F)cn1 [Example 4, 3-(6-{[(1R)-1-(5-Fluoropyridin-2-yl)ethyl]amino}imidazo[1,2-b]pyridazin-3-yl) pyridin-2(1H)-one]"
> 7.00,> 7.00,> 7.00,"C[C@H](Nc1ccc2ncc(-c3cc(Cl)c[nH]c3=O)n2n1)c1ccc(F)cn1 [Example 8, 5-Chloro-3-(6-{[(1S)-1-(5-fluoropyridin-2-yl)ethyl]amino}imidazo[1,2-b]pyridazin-3-yl)pyridin-2(1H)-one]"
> 7.00,> 7.00,> 7.00,"Cc1cc2ncc(-c3ccc[nH]c3=O)n2nc1N[C@@H](C)c1ccc(F)cn1 [Example 9, 3-(6-{[(1S)-1-(5-Fluoropyridin-2-yl)ethyl]amino}-7-methylimidazo[1,2-b]pyridazin-3-yl)pyridin-2(1H)-one]"
> 7.00,> 7.00,> 7.00,"C[C@H](Nc1ccc2ncn(-c3cc(Cl)c[nH]c3=O)c2n1)c1ccc(F)cn1 [Example 13, 5-Chloro-3-(5-{[(1S)-1-(5-fluoropyridin-2-yl)ethyl]amino}-3H-imidazo[4,5-b]pyridin-3-yl)pyridin-2(1H)-one]"
